How the values were obtained:
RGS2 mRNA = test: standard mouse micro-array expression in treated 3T3-L1 adipocytes; assay type: cell-based
From the text: (§1) For RGS2 we observed down-regulation as follows; pioglitazone 0.29 fold p<0.00009, rosiglitazone 0.25 fold p<0.00003, troglitazone, 0.27 fold p<0.00085. […] As such these regulations are reflective of endogenous PPAR activation of endogenous genes.

[1] = tested on: pyruvate dehydrogenase kinase 4 mRNA (PDHK4); test: as above; assay type: cell-based
From the text: as §1

PDHK4 = test: Taqman PCR expression in treated 3T3-L1 adipocytes; assay type: cell-based, mouse; conditions: for up regulation of PDHK4, fold: Taqman PCR with SYBR green detection, verification of chip data; for PDHK4 fold change: Taqman, 3T3-L1 adipocytes treated with rosiglitazone, PGD2 or 9α,11β-PGF2α
From the text: (§2) Primers were designed against murine RGS2 and murine PDHK4 and the gene expression changes observed with the standard mouse chips were verified using Taqman PCR with SYBR green detection. Treatment of cells with pioglitazone, rosiglitazone or troglitazone caused a down regulation of RGS2 by 0.47 fold, 0.41 fold and 0.55 fold, respectively.
(§3) Taqman primers were used to analyze the expression of RGS2 and PDHK4 in mouse 3T3-L1 adipocytes treated with rosiglitazone, PGD2 and 9α,11β-PGF2α. […] In contrast, the fold change with 9α,11β-PGF2α was 0.75. […] In contrast, the fold change with 9α,11β-PGF2α was 0.77.

RGS2 = test: Taqman PCR expression in treated 3T3-L1 adipocytes; assay type: cell-based, mouse; conditions: for down regulation of RGS2, fold: Taqman PCR with SYBR green detection, verification of chip data; for RGS2 fold change: Taqman, 3T3-L1 adipocytes treated with rosiglitazone, PGD2 or 9α,11β-PGF2α
From the text: as §2, §3

PPAR alpha = biological target: T1, PPAR alpha (Homo sapiens, UniProt Q07869); test: cell-based PPAR ligand activity reporter assay (PPAR ligand-binding domain coupled to heterologous DNA binding domain); conditions: reporter gene expression
T1 construct: expressed in transfected cells
T1 sequence (Q07869 239-466 limits assumed): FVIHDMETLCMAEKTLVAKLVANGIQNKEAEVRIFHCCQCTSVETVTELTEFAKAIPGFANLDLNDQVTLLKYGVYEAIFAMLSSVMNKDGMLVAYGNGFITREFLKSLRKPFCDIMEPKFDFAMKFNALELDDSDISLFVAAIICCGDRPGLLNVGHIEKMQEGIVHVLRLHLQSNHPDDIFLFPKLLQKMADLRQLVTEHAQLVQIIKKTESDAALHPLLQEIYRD
Method: (§4) Prostaglandin D2 and 9α,11β-PGF2α were assayed in cell-based assays (ex vivo) designed to detect PPAR ligand activity. The assay uses a recombinant protein consisting of a PPAR ligand-binding domain coupled to a heterologous DNA binding domain. See, e.g., Reginato, et. al., J. Biol. Chem. 273:32679 (1998). Binding of a ligand to the PPAR binding domain drives expression of a reporter gene.

PPAR gamma = biological target: T2, PPAR gamma (Homo sapiens, UniProt P37231); test: as above; conditions: reporter gene expression
T2 construct: expressed in transfected cells
T2 sequence (P37231 238-503 limits assumed): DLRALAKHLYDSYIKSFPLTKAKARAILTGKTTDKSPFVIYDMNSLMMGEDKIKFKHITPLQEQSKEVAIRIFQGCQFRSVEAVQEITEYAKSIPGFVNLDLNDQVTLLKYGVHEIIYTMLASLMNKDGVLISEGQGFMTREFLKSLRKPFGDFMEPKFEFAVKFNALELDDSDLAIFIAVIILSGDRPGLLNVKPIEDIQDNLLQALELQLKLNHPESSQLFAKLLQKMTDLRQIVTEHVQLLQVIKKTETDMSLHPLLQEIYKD
Method: as §4

[2] = tested on: aP2 reporter gene (endogenous PPAR); test: cell-based natural PPAR-responsive promoter (aP2) reporter gene assay; design: species or system mouse
Method: Prostaglandin D2 and 9α,11β-PGF2α were assayed in cell-based assays (ex vivo) designed to detect activation of a natural PPAR responsive promoter. The assay uses the promoter region of the mouse aP2 gene, which contains binding sites for PPARs (both PPAR alpha and gamma) coupled to a reporter gene. Binding of a ligand to endogenous PPAR results in activation of the aP2 reporter gene.

mouse 3T3-L1 adipocytes = test: glucose transport in 3T3-L1 adipocytes; assay type: cell-based; conditions: treatment for 40 hours
3T3-L1 adipocytes = test: insulin-stimulated glucose transport (3H-2-deoxyglucose) in adenovirus-infected 3T3-L1 adipocytes; assay type: cell-based, mouse; conditions: cells infected with control virus, 4 μM PGD2 for 20 hours
Method: 3T3-L1 adipocytes were infected with either control adenovirus or recombinant adenovirus encoding the four human AKR1C isoforms and incubated 20 hours to allow for protein expression. Cells were then treated 20 hours with 4 μM PGD2 and glucose transport in the absence and presence of insulin was measured.

SMILES	RGS2 mRNA down-regulation, fold (RGS2 mRNA)	PDHK4 mRNA up regulation, fold [1]	up regulation of PDHK4, fold (PDHK4)	down regulation of RGS2, fold (RGS2)	PDHK4 fold change (PDHK4)	RGS2 fold change (RGS2)	activation of PPAR alpha (PPAR alpha)	activation of PPAR gamma (PPAR gamma)	activation of the aP2 reporter gene [2]	effect on glucose transport (mouse 3T3-L1 adipocytes)	effect on insulin-stimulated glucose transport (3T3-L1 adipocytes)
Cc1c(C)c2c(c(C)c1O)CCC(C)(COc1ccc(CC3SC(=O)NC3=O)cc1)O2 (stereo not drawn) [troglitazone]	0.27 fold	3.2 fold	5.5 fold	0.55 fold							
CCc1ccc(CCOc2ccc(CC3SC(=O)NC3=O)cc2)nc1 (stereo not drawn) [pioglitazone]	0.29 fold	3.13 fold	4.9 fold	0.47 fold							
CN(CCOc1ccc(CC2SC(=O)NC2=O)cc1)c1ccccn1 (stereo not drawn) [rosiglitazone]	0.25 fold	3.16 fold	5.45 fold	0.41 fold	3.73 fold change	0.20 fold change					
CCCCC[C@H](O)/C=C/[C@@H]1[C@@H](C/C=C\CCCC(=O)O)[C@@H](O)C[C@@H]1O [9α,11β-PGF2α, 9α,11β-prostaglandin F2α]					0.77 fold change	0.75 fold change	without effect	without effect	without effect	no effect on glucose transport	
CCCCC[C@H](O)/C=C/[C@H]1C(=O)C[C@H](O)[C@@H]1C/C=C\CCCC(=O)O [PGD2, prostaglandin D2]					2.39 fold change	0.29 fold change	Significant activation	Significant activation	Significant activation	enhances glucose transport to similar levels as those observed with the PPAR ligand rosiglitazone	enhances insulin-stimulated glucose transport

Source: patent US7510851B2, “Compositions and methods for diagnosing and treating diabetes, insulin resistance and dyslipidemia” (Metabolex, Inc., priority 2001, dated 2009)
